Where a name gives a salt, the structure may show the parent alone.
What was measured:
[1] = system: human telomerase (HL60 cell extract); assay: Inhibition of telomerase, TRAP test (TS extension and PCR with HL60 extract); format: biochemical; conditions: telomerase extract from HL60 cells
Procedure: The extract is stored at -80° C.

[2] = system: G-quadruplex oligonucleotide GGGTTAGGGTTAGGGTTAGGG (3.5 repeats of the human telomeric unit); assay: G-quadruplex stabilization, fluorescence Tm (FAM+DABCYL oligonucleotide); format: binding; conditions: increase in Tm vs reference without product (44° C. in LiCl buffer), 0.2 μM oligonucleotide, 0.1 M LiCl, 10 mM cacodylate pH 7.6
From the text: The G-quadruplex stabilizing activity may be determined by a method using the formation of a complex with fluorescein of which the experimental protocol is described below.
All the oligonucleotides, modified or otherwise, were synthesized by Eurogentec S A, Seraing, Belgium. The oligonucleotide FAM+DABCYL carries the catalogue reference OL-0371-0802. It has the sequence: […] corresponding to 3.5 repeats of the human telomeric unit (strand rich in G). The fluorescein is attached to the 5′ end, the DABCYL to the 3′ end, by the chemical arms described by Eurogentec. The concentration of the samples is checked by spectrophotometry, recording the absorbance spectrum between 220 and 700 nm and using the molar extinction coefficient provided by the supplier.
All the experiments were carried out in a 10 mM sodium cacodylate buffer pH 7.6 containing 0.1 M lithium chloride (or sodium chloride). The absence of fluorescent contamination in the buffer was checked beforehand. The fluorescent oligonucleotide is added at the final concentration of 0.2 μM.
All the measurements of fluorescence were carried out on a Spex Fluorolog DM1B apparatus, using an excitation line width of 1.8 nm and an emission line width of 4.5 nm. The samples are placed in a microquartz cuvette of 0.2×1 cm. The temperature of the sample is controlled by an external water bath. The oligonucleotide alone was analyzed at 20, 30, 40, 50, 60, 70 and 80° C. The emission spectra are recorded using an excitation wavelength of 470 nm. The excitation spectra are recorded using either 515 nm or 588 nm as emission wavelength. The spectra are corrected for the response of the instrument by reference curves. A high extinction (80–90%) of the fluorescence of fluorescein at room temperature is observed, in agreement with an intramolecular folding of the oligonucleotide at 20° C. in the form of a G-quadruplex, which induces juxtaposition of its 5′ and 3′ ends which are respectively linked to fluorescein and to DABCYL. This juxtaposition causes an already-described phenomenon of extinction of fluorescence which is used for “Molecular Beacons”.
An oligonucleotide stock solution at the strand concentration of 0.2 μM in 0.1 M LiCl, 10 mM cacodylate buffer, pH 7.6, is prepared beforehand, heated briefly at 90° C. and slowly cooled to 20° C., and then distributed in aliquots of 600 μl in the fluorescence cuvettes. […] The samples are then allowed to incubate for at least 1 hour at 20° C. before each measurement. The use of longer incubation times (up to 24 hours) has no influence on the result obtained.
Each experiment allows the measurement of only one sample. The latter is first incubated at an initial temperature of 20° C., heated to 80° C. over 38 minutes, left for 5 minutes at 80° C. and then cooled to 20° C. over 62 minutes. During this time, the fluorescence is measured simultaneously at two emission wavelengths (515 nm and 588 nm) using 470 nm as excitation wavelength. A measurement is carried out every 30 seconds. The temperature of the water bath is recorded in parallel, and the fluorescence profile as a function of the temperature is reconstituted from these values. The fluorescence profiles are then normalized between 20° C. and 80° C., and the temperature for which the intensity of emission at 515 nm is the mean of those at high and low temperature is called Tm. Under these conditions, the Tm of the reference sample without addition of product is 44° C. in a lithium chloride buffer. This temperature is increased to more than 55° C. in a sodium chloride buffer. The addition of a G-quadruplex stabilizing compound induces an increase in the Tm. This increase is judged to be significant if it is greater than 3°.

## COc1cc(C)nc2ccc(NC(=O)c3ccc(C(=O)Nc4ccc5nc(C)cc(OC)c5c4)s3)cc12 [Example 1, bis[(4-methoxy-2-methylquinolin-6-yl)amido]-2,5-thiophenedicarboxylic acid]
[1]
  IC50: 1700 nM
[2]
  G4 Tm (G4 stabilization differential in ° C., product tested at 1 µM): 2.5 °C

## Cc1cc(N(C)C)c2cc(NC(=O)c3ccc(C(=O)Nc4ccc5nc(C)cc(N(C)C)c5c4)s3)ccc2n1 [Example 2, bis[(4-dimethylamino-2-methylquinolin-6-yl)amido]-2,5-thiophenedicarboxylic acid]
[1]
  IC50: 900 nM
[2]
  G4 Tm (G4 stabilization differential in ° C., product tested at 1 µM): 10.5 °C

## Cc1cc(N)c2cc(NC(=O)c3ccc(C(=O)Nc4ccc5nc(C)cc(N)c5c4)s3)ccc2n1 [Example 3, bis[(4-amino-2-methylquinolin-6-yl)amido]-2,5-thiophenedicarboxylic acid]
[1]
  IC50: 950 nM
[2]
  G4 Tm (G4 stabilization differential in ° C., product tested at 1 µM): 1.7 °C

## Cc1cc(N)c2cc(NC(=O)c3cccc(C(=O)Nc4ccc5nc(C)cc(N)c5c4)c3)ccc2n1 [Example 6, N,N′-bis(4-amino-2-methylquinolin-6-yl)-isophthalamide]
[1]
  IC50: 310 nM
[2]
  G4 Tm (G4 stabilization differential in ° C., product tested at 1 µM): 16 °C

## Cc1cc(N(C)C)c2cc(NC(=O)c3ccc(C(=O)Nc4ccc5nc(C)cc(N(C)C)c5c4)cc3)ccc2n1 [Example 7, N,N′-bis(4-dimethylamino-2-methylquinolin-6-yl)-terephthalamide]
[1]
  IC50: 1500 nM
[2]
  G4 Tm (G4 stabilization differential in ° C., product tested at 1 µM): 2 °C

## COc1cc(C)nc2ccc(NC(=O)Nc3cccc(NC(=O)Nc4ccc5nc(C)cc(OC)c5c4)c3)cc12 [Example 8, 1-(4-methoxy-2-methylquinolin-6-yl)-3-{3-[3-(4-methoxy-2-methylquinolin-6-yl)ureido]phenyl}urea]
[1]
  IC50: 750 nM
[2]
  G4 Tm (G4 stabilization differential in ° C., product tested at 1 µM): 2.5 °C

## Cc1cc(N(C)C)c2cc(NC(=O)Nc3ccc(NC(=O)Nc4ccc5nc(C)cc(N(C)C)c5c4)cc3)ccc2n1 [Example 9, 1-(4-dimethylamino-2-methylquinolin-6-yl)-3-{4-[3-(4-dimethylamino-2-methylquinolin-6-yl)ureido]phenyl}urea]
[1]
  IC50: 800 nM
[2]
  G4 Tm (G4 stabilization differential in ° C., product tested at 1 µM): 11.5 °C

## CSc1c(Cl)nc(Nc2ccc3nc(C)cc(N)c3c2)nc1Nc1ccc2nc(C)cc(N)c2c1 [Example 16, N,N′-bis(4-amino-2-methyl-6-quinolyl)-2,4-diamino-6-chloro-5-methylsulfanylpyrimidine]
[1]
  IC50: 550 nM
[2]
  G4 Tm (G4 stabilization differential in ° C., product tested at 1 µM): 5 °C

## Cc1cc(N)c2cc(NC(=O)c3ccc(C(=O)Nc4ccc5nc(C)cc(N)c5c4)nc3)ccc2n1.Cl [Example 17, bis[(4-amino-2-methylquinolin-6-yl)amido]-2,5-pyridinedicarboxylic acid Hydrochloride]
[1]
  IC50: 300 nM
[2]
  G4 Tm (G4 stabilization differential in ° C., product tested at 1 µM): 5.5 °C

## Cc1cc(N(C)C)c2cc(NC(=O)/C=C/C(=O)Nc3ccc4nc(C)cc(N(C)C)c4c3)ccc2n1 [Example 18, N,N′-bis(4-dimethylamino-2-methylquinolin-6-yl)but-2-enediamide]
[1]
  IC50: 1200 nM
[2]
  G4 Tm (G4 stabilization differential in ° C., product tested at 1 µM): 9 °C

## Cc1cc(N(C)C)c2cc(NC(=O)c3ccc(C(=O)Nc4ccc5nc(C)cc(N(C)C)c5c4)nc3)ccc2n1 [Example 19, bis[(4-dimethylamino-2-methylquinolin-6-yl)-amido]-2,5-pyridinedicarboxylic acid]
[1]
  IC50: 600 nM
[2]
  G4 Tm (G4 stabilization differential in ° C., product tested at 1 µM): 16 °C

## Cc1cc(N(C)C)c2cc(NC(=O)c3ccnc(C(=O)Nc4ccc5nc(C)cc(N(C)C)c5c4)c3)ccc2n1 [Example 20, bis[(4-dimethylamino-2-methylquinolin-6-yl)-amido]-2,4-pyridinedicarboxylic acid]
[1]
  IC50: 1100 nM

## Cc1cc(N(C)C)c2cc(NC(=O)Cc3ccc(CC(=O)Nc4ccc5nc(C)cc(N(C)C)c5c4)cc3)ccc2n1 [Example 21, N,N′-bis(4-dimethylamino-2-methylquinolin-6-yl)-1,4-phenylenediacetamide]
[1]
  IC50: 1300 nM
[2]
  G4 Tm (G4 stabilization differential in ° C., product tested at 1 µM): 3 °C

## Cc1cc(N(C)C)c2cc(NCc3ccc(C(=O)Nc4ccc5nc(C)cc(N(C)C)c5c4)nc3)ccc2n1 [Example 22, [(4-dimethylamino-2-methylquinolin-6-yl)-amido]-5-[(4-dimethylamino-2-methylquinolin-6-ylamino)methyl]pyridine-2-carboxylic acid Hydrochloride]
[1]
  IC50: 2900 nM
[2]
  G4 Tm (G4 stabilization differential in ° C., product tested at 1 µM): 4 °C

## Cc1cc(N)c2cc(NC(=O)c3cccc(C(=O)Nc4ccc5nc(C)cc(N)c5c4)n3)ccc2n1 [Example 23, bis[(4-amino-2-methylquinolin-6-yl)-amido]-2,6-pyridinedicarboxylic acid hydrochloride]
[1]
  IC50: 200 nM
[2]
  G4 Tm (G4 stabilization differential in ° C., product tested at 1 µM): 23 °C

## Cc1cc(N(C)C)c2cc(NC(=O)c3cccc(C(=O)Nc4ccc5nc(C)cc(N(C)C)c5c4)n3)ccc2n1 [Example 24, bis-[(4-dimethylamino-2-methylquinolin-6-yl)-amido]-2,6-pyridinedicarboxylic acid hydrochloride]
[1]
  IC50: 500 nM
[2]
  G4 Tm (G4 stabilization differential in ° C., product tested at 1 µM): 15.6 °C

Reference: patent US6995175B2, “Chemical derivatives and their application as antitelomerase agent” (Aventis Pharma S.A., priority 2001, dated 2006)
